Experimental findings from ChEMBL document CHEMBL1136024, “CCR3 antagonists: a potential new therapy for the treatment of asthma. Discovery and structure-activity relationships” (Bioorg Med Chem Lett, 2002) are described below.

The target in the assay is T1, C-C chemokine receptor type 3 (Homo sapiens, UniProt P51677).
T1 sequence (P51677 whole entry): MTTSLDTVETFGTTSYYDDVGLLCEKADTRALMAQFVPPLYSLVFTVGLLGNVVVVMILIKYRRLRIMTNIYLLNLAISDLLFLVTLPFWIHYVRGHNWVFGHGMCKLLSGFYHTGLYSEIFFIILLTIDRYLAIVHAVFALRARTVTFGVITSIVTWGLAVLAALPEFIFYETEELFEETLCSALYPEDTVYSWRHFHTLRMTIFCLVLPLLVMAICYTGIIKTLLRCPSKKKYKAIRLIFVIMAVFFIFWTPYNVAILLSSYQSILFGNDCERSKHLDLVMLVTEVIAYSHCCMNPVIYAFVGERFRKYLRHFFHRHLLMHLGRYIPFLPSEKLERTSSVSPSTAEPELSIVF
The assay is described as follows: In vitro inhibition if C-C chemokine receptor type 3 (CCR3) using 150p M [125I]-labeled human eotaxin.
`O=C(NCCCN1CCC(Cc2ccc(F)cc2)CC1)Nc1ccccc1[N+](=O)[O-]`: inhibition was half-maximal at 0.089 µM (IC50). Under `COc1ccccc1C(=O)NCCCCN1CC[C@@H]2[C@H](C1)c1cccc3c1N2CC3` stands 6.8 µM; under `CC(=O)c1cccc(NC(=O)NCCCN2CCC(Cc3ccc(F)cc3)CC2)c1`, 0.01 µM; under `CSc1ccc(NC(=O)NCCCN2CCC(Cc3ccc(F)cc3)CC2)cc1`, 0.04 µM. Under `O=C(NCCCN1CCC(Cc2ccc(F)cc2)CC1)Nc1cccc(C(F)(F)F)c1` stands 0.07 µM; under `CC(=O)c1cccc(NC(=O)NCCCN2CC[C@H](Cc3ccccc3)C[C@@H]2[C@H](C)O)c1`, 0.02 µM. Consider `CC[C@@H](O)[C@H]1C[C@@H](Cc2ccccc2)CCN1CCCNC(=O)Nc1cccc(C(C)=O)c1`, for which the concentration for half-maximal inhibition (IC50) (in general, the concentration needed to halve the response being measured) stood at 0.05 µM. With `C[S+]([O-])c1cccc(NC(=O)NCCCN2CCC(Cc3ccc(F)cc3)CC2)c1` (stereo not given), the IC50 came to 0.05 µM. Under `N#Cc1ccc(C(=O)NCCCCN2CCC(Cc3ccccc3)CC2)cc1` stands 1.3 µM; under `O=C(NCCCN1CCC(Cc2ccc(F)cc2)CC1)Nc1ccc([N+](=O)[O-])cc1`, 0.007 µM. The compound `O=C(NCCCN1CCC(Cc2ccc(F)cc2)CC1)Nc1cccc(-c2cccs2)c1` showed an IC50 of 0.2 µM. Under `CCCC[C@H](O)[C@H]1C[C@@H](Cc2ccccc2)CCN1CCCNC(=O)Nc1cccc(C(C)=O)c1` (stereo in doubt; form 1) stands 0.001 µM. Under `COc1cccc(NC(=O)NCCCN2CCC(Cc3ccccc3)CC2)c1` stands 0.3 µM. For `O=C(NCCCN1CCC(Cc2ccccc2)CC1)Nc1ccccc1`, the IC50 is 0.4 µM. The IC50 values of the last two compounds are within 1.5-fold of each other.

In turn, `O=C(NCCCCN1CCC(Cc2ccccc2)CC1)c1ccccc1` yielded an IC50 of 0.8 µM. Under `COc1cccc(NC(=O)N2CCO[C@H](CN3CCC(Cc4ccc(F)cc4)CC3)C2)c1` stands 0.03 µM; under `COc1ccc(C(=O)NCCCCN2CC[C@@H]3[C@H](C2)c2cccc4c2N3CC4)cc1`, 5.1 µM. To `COc1cccc(NC(=O)NCCCN2CCC(Cc3ccc(F)cc3)CC2)c1` belongs 0.03 µM; to `CC[C@H](O)[C@H]1C[C@@H](Cc2ccccc2)CCN1CCCNC(=O)Nc1cccc(C(C)=O)c1` (stereo in doubt; 85), 0.006 µM. `CC(=O)c1cccc(NC(=O)NCCCN2CC[C@H](Cc3ccccc3)C[C@@H]2C(C)(O)O)c1`: half-maximal inhibition (IC50) was put at 0.05 µM. This IC50 lies about 8.3-fold higher than the previous one. To `CS(=O)(=O)c1cccc(NC(=O)NCCCN2CCC(Cc3ccc(F)cc3)CC2)c1` belongs 0.02 µM.

In the case of `O=C(NCCCN1CC[C@@H]2[C@H](C1)c1cccc3c1N2CC3)c1ccc(F)cc1`, the IC50 came out at 5.5 µM. `O=C(NCCCN1CC[C@@H]2[C@H](C1)c1cccc3c1N2CC3)Nc1cccc(I)c1` came in with an IC50 of 1.1 µM. This IC50 lies about 5-fold lower than the previous one. Turning to `COc1cccc(NC(=O)N2CCO[C@@H](CN3CCC(Cc4ccc(F)cc4)CC3)C2)c1`, the IC50 worked out at 0.26 µM. Under `O=C(NCCCN1CCC(Cc2ccc(F)cc2)CC1)Nc1cccc(-c2ncc[nH]2)c1` stands 0.1 µM; under `O=C(NCCCN1CCC(Cc2ccc(F)cc2)CC1)NC12CC3CC(CC(C3)C1)C2`, 0.09 µM. Turning to `CC(=O)c1cccc(NC(=O)NCCCN2CC[C@H](Cc3ccccc3)C[C@@H]2C(C)(C)O)c1`, the IC50 was determined as 0.2 µM.

With `CCC[C@H]1C[C@@H](Cc2ccccc2)CCN1CCCNC(=O)Nc1cccc(C(C)=O)c1` (stereo in doubt), the IC50 came to 0.2 µM. On to `CC[C@H](O)[C@H]1C[C@@H](Cc2ccccc2)CCN1CCCNC(=O)Nc1cccc(C(C)=O)c1` (stereo in doubt), for which the IC50 came out at 0.008 µM. For the compound `CC(=O)c1cccc(NC(=O)NCCCN2CC[C@H](Cc3ccccc3)C[C@@H]2[C@H](O)CC(C)C)c1`, the IC50 turned out to be 0.06 µM. As for `N#Cc1cccc(NC(=O)NCCCN2CCC(Cc3ccccc3)CC2)c1`, the IC50 came out at 0.2 µM. In the case of `O=C(NCCCN1CCC(Cc2ccc(F)cc2)CC1)Nc1cccc([N+](=O)[O-])c1`, half-maximal inhibition (IC50) required 0.009 µM. In the case of `O=C(NCCCN1CCC(Cc2ccc(F)cc2)CC1)Nc1cccc(-c2ccco2)c1`, the IC50 was 0.1 µM. Under `O=C(NCCCN1CCC(Cc2ccc(F)cc2)CC1)NCc1ccccc1` stands 0.4 µM. To `CC(=O)c1ccc(NC(=O)NCCCN2CCC(Cc3ccc(F)cc3)CC2)cc1` belongs 0.2 µM; to `O=C(NCCCN1CC[C@@H]2[C@H](C1)c1cccc3c1N2CC3)Nc1ccc(C(F)(F)F)cc1`, 3.7 µM; to `COc1cccc(NC(=O)N2CCCC(CN3CCC(Cc4ccccc4)CC3)C2)c1` (racemic), 0.33 µM. Regarding `COc1cccc(NC(=O)N2CCCCC2CN2CCC(Cc3ccc(F)cc3)CC2)c1` (racemic), the half-maximal inhibitory concentration (IC50) turned out to be 0.17 µM. In turn, `O=S(=O)(NCCCN1CC[C@@H]2[C@H](C1)c1cccc3c1N2CC3)c1ccc(F)cc1` gave an IC50 of 10.1 µM. Compared with the last compound, the IC50 is about 59-fold higher.

`CCCC[C@H](O)[C@H]1C[C@@H](Cc2ccc(F)cc2)CCN1CCCNC(=O)Nc1cccc(C(C)=O)c1` came in with a half-maximal inhibitory concentration (IC50) of 0.005 µM.

On to `CN(C)c1ccc(NC(=O)NCCCN2CCC(Cc3ccccc3)CC2)cc1`, for which the midpoint of inhibition, the IC50, lay at 1.6 µM. This IC50 lies about 320-fold higher than the previous one. Under `O=C(NCCCN1CCC(Cc2ccc(F)cc2)CC1)Nc1ccccc1` stands 0.03 µM.

In the case of `O=C(NCCCN1CCC(Cc2ccccc2)CC1)Nc1ccc(C(F)(F)F)cc1`, the half-inhibitory concentration (IC50) came out at 1.2 µM. This IC50 lies about 40-fold higher than the previous one. `COc1cccc(NC(=O)N2CCCC(N3CCC(Cc4ccc(F)cc4)CC3)C2)c1` (racemic) displayed an IC50 of 0.53 µM. This IC50 lies about 2.3-fold lower than the previous one. To `O=S(=O)(NCCCCN1CC[C@@H]2[C@H](C1)c1cccc3c1N2CC3)c1ccc(F)cc1` belongs 6.4 µM.

Turning to `COc1cccc(NC(=O)N2CCC(CN3CCC(Cc4ccc(F)cc4)CC3)C2)c1` (racemic), the IC50 is 0.24 µM.

`O=C(NCCCN1CCC(Cc2ccc(F)cc2)CC1)NCCc1ccccc1` returned an IC50 of 0.3 µM.

For the compound `CN(C)c1ccc(NC(=O)NCCCN2CC[C@@H]3[C@H](C2)c2cccc4c2N3CC4)cc1`, the half-maximal inhibitory concentration (IC50) amounted to 4.8 µM.

In turn, `COc1cccc(NC(=O)N2CCC(CN3CCC(Cc4ccccc4)CC3)CC2)c1` registered an IC50 of 1.6 µM.

In turn, `N#Cc1cccc(NC(=O)NCCCCN2CCC(Cc3ccccc3)CC2)c1` returned an IC50 of 0.5 µM. To `CC(=O)c1cccc(NC(=O)NCCCN2CC[C@H](Cc3ccccc3)C[C@@H]2[C@H](O)C(C)C)c1` belongs 0.1 µM. To `O=C(NCCCN1CC[C@@H]2[C@H](C1)c1cccc3c1N2CC3)Nc1ccc(I)cc1` belongs 1.5 µM; to `O=C(CCCN1CC[C@@H]2[C@H](C1)c1cccc3c1N2CC3)c1ccc(F)cc1`, 1.1 µM; to `O=C(NCCN1CC[C@@H]2[C@H](C1)c1cccc3c1N2CC3)c1ccc(F)cc1`, 8.3 µM. `CS(=O)(=O)c1ccc(NC(=O)NCCCN2CCC(Cc3ccc(F)cc3)CC2)cc1` had an IC50 of 0.07 µM. Under `Cn1nnnc1-c1cccc(NC(=O)NCCCN2CCC(Cc3ccc(F)cc3)CC2)c1` stands 0.005 µM; under `N#Cc1cccc(NC(=O)NCCCN2CCC(Cc3ccccc3F)CC2)c1`, 0.2 µM. As for `C[S+]([O-])c1ccc(NC(=O)NCCCN2CCC(Cc3ccc(F)cc3)CC2)cc1` (stereo not given), the IC50 was 0.2 µM.

Take `COc1cccc(NC(=O)N2CCCC(CCN3CCC(Cc4ccc(F)cc4)CC3)C2)c1` (racemic): half-maximal inhibition (IC50) required 0.25 µM. To `N#Cc1cccc(NC(=O)NCCCCCN2CCC(Cc3ccccc3)CC2)c1` belongs 1.2 µM. For the compound `N#Cc1cccc(NC(=O)NCCCN2CCC(Cc3ccc(Cl)cc3)CC2)c1`, the half-inhibitory concentration (IC50) worked out at 0.02 µM. The compound `O=C(NCCCN1CCC(Cc2ccc(F)cc2)CC1)NC1CCCCC1` came in with an IC50 of 0.1 µM.

In the case of `COc1cccc(C(=O)NCCCCN2CCC(Cc3ccccc3)CC2)c1`, inhibition was half-maximal at 1.2 µM (IC50). This IC50 lies about 12-fold higher than the previous one.

Compound `CC(=O)c1cccc(NC(=O)NCCCN2CC[C@H](Cc3ccccc3)C[C@@H]2[C@@H](O)CC(C)C)c1` gave a concentration for half-maximal inhibition (IC50) of 0.02 µM. Turning to `N#Cc1cccc(NC(=O)NCCCN2CC[C@@H]3[C@H](C2)c2cccc4c2N3CC4)c1`, 0.7 µM corresponded to half-maximal inhibition (IC50). To `CSc1cccc(NC(=O)NCCCN2CCC(Cc3ccc(F)cc3)CC2)c1` belongs 0.02 µM; to `CC(=O)c1cccc(NC(=O)NCCCN2CC[C@H](Cc3ccccc3)C[C@@H]2[C@@H](O)C(C)C)c1`, 0.05 µM; to `CCCC[C@H](O)[C@H]1C[C@@H](Cc2ccccc2)CCN1CCCNC(=O)Nc1cccc(C(C)=O)c1` (stereo in doubt; form 2), 0.08 µM. `O=C(NCCCCN1CCC(Cc2ccccc2)CC1)c1ccc(F)cc1` had an IC50 of 1 µM.

`CC(=O)c1cccc(NC(=O)NCCCN2CC[C@H](Cc3ccccc3)C[C@@H]2Cc2ccccc2)c1` showed an IC50 of 0.2 µM. Turning to `COc1cccc(C(=O)NCCCCN2CC[C@@H]3[C@H](C2)c2cccc4c2N3CC4)c1`, the IC50 was 8.1 µM. To `O=C(NCCCN1CCC(Cc2ccc(F)cc2)CC1)Nc1ccc(C(F)(F)F)cc1` belongs 0.06 µM. Compound `O=C(NCCCCN1CC[C@@H]2[C@H](C1)c1cccc3c1N2CC3)c1ccc(F)cc1` returned an IC50 of 3.9 µM. Compared with the last compound, the IC50 is about 65-fold higher. To `N#Cc1cccc(NC(=O)NCCN2CCC(Cc3ccccc3)CC2)c1` belongs 0.5 µM; to `CCCC[C@H](O)[C@H]1C[C@@H](Cc2ccccc2)CCN1CCCNC(=O)Nc1cccc(-c2nnnn2C)c1`, 0.001 µM. To `N#Cc1ccc(NC(=O)NCCCN2CCC(Cc3ccc(F)cc3)CC2)cc1` belongs 0.02 µM. For `COc1cccc(NC(=O)N2CCC(N3CCC(Cc4ccccc4)CC3)CC2)c1`, the IC50 turned out to be 2.3 µM. To `O=C(NCCCN1CCC(Cc2ccc(F)cc2)CC1)Nc1ccccc1C(F)(F)F` belongs 0.2 µM; to `Cc1ccc(CC2CCN(CCCNC(=O)Nc3cccc(C#N)c3)CC2)cc1`, 0.5 µM; to `N#Cc1cccc(NC(=O)NCCCN2CCC(Cc3ccc(F)cc3)CC2)c1`, 0.02 µM.
